Laboratory results: ChEMBL document CHEMBL1201862, “PubChem BioAssay data set” (2004)
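In this assay, cells in 96-well plates receive the compound at five concentrations for 48 hours. Endpoints are linearly interpolated between the surrounding concentrations. GI50 is the concentration that inhibits growth by half.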 The source made the active and inactive calls. Rule as the data show it: active = GI50 up to about 1.1 µM and inactive = higher. Non-standard residues stand in square brackets, D forms with d. Residues, ends and D or L forms follow the SMILES beside them. ξ: configuration not given here. Pen = CC(C)(S)[C@H](N)C(=O)O; ξL = CC(C)CC(N)C(=O)O

Legend:
Assay in all cases: DTP human tumour cell line panel, 48 h
[1] = test system: MCF7
[2] = test system: RPMI-8226
[3] = test system: HT-29
[4] = test system: NCI-H460
[5] = test system: SF-268
[6] = test system: EKVX
[7] = test system: K562
[8] = test system: SK-MEL-28
[9] = test system: SN12C
[10] = test system: NCI-H522
[11] = test system: U-251
[12] = test system: SF-539
[13] = test system: SK-MEL-5
[14] = test system: RXF 393
[15] = test system: HL-60
[16] = test system: CAKI-1
[17] = test system: COLO 205
[18] = test system: LOX IMVI
[19] = test system: HOP-62
[20] = test system: M14

Row | Structure (SMILES) | GI50 [1] | GI50 [2] | GI50 [3] | GI50 [4] | GI50 [5] | GI50 [6] | GI50 [7] | GI50 [8] | GI50 [9] | GI50 [10] | GI50 [11] | GI50 [12] | GI50 [13] | GI50 [14] | GI50 [15] | GI50 [16] | GI50 [17] | GI50 [18] | GI50 [19] | GI50 [20]
1 | CC[C@H]1CN2CCc3cc(OC)c(OC)cc3[C@@H]2C[C@@H]1C[C@H]1NCCc2cc(O)c(OC)cc21 | 0.025 µM (active) | 0.146 µM (active) | 0.0319 µM (active) | 0.0282 µM (active) | 0.0557 µM (active) | 0.025 µM (active) | 0.025 µM (active) | 0.041 µM (active) | 0.0361 µM (active) | 0.025 µM (active) | 0.0333 µM (active) | 0.0308 µM (active) | 0.0592 µM (active) | 0.0354 µM (active) | 0.025 µM (active) | 0.025 µM (active) | – | – | – | –
2 | c1ccc2c(c1)SCCc1cn[nH]c1-2 | > 100 µM (inactive) | – | > 100 µM (inactive) | > 100 µM (inactive) | > 100 µM (inactive) | > 100 µM (inactive) | > 100 µM (inactive) | > 100 µM (inactive) | > 100 µM (inactive) | > 100 µM (inactive) | > 100 µM (inactive) | > 100 µM (inactive) | > 100 µM (inactive) | > 100 µM (inactive) | > 100 µM (inactive) | > 100 µM (inactive) | > 100 µM (inactive) | > 100 µM (inactive) | > 100 µM (inactive) | –
3 | Cc1ccc(C(=O)Cc2nc3c([nH]c2=O)c(C)nn3-c2ccccc2)c(C)c1 | > 10 µM (inactive) | > 10 µM (inactive) | > 10 µM (inactive) | – | > 10 µM (inactive) | – | > 10 µM (inactive) | > 10 µM (inactive) | > 10 µM (inactive) | > 10 µM (inactive) | > 10 µM (inactive) | > 10 µM (inactive) | > 10 µM (inactive) | – | 9.04 µM (inactive) | > 10 µM (inactive) | > 10 µM (inactive) | > 10 µM (inactive) | > 10 µM (inactive) | > 10 µM (inactive)
4 | O=C(O)C(F)(F)C(F)(F)C(F)(F)C(F)(F)C(F)(F)C(F)(F)C(F)(F)C(F)(F)F | 57 µM (inactive) | – | 48.2 µM (inactive) | 81.5 µM (inactive) | 54.7 µM (inactive) | 48 µM (inactive) | 27.1 µM (inactive) | > 100 µM (inactive) | 50.5 µM (inactive) | 62.5 µM (inactive) | 26.4 µM (inactive) | 43.2 µM (inactive) | 80 µM (inactive) | > 100 µM (inactive) | 25.2 µM (inactive) | > 100 µM (inactive) | 48.5 µM (inactive) | 42.3 µM (inactive) | 52.6 µM (inactive) | 28.1 µM (inactive)
5 | CCCCCCSc1nc(N)nc2nc[nH]c12 | 30.5 µM (inactive) | 60.1 µM (inactive) | 34.4 µM (inactive) | 39.3 µM (inactive) | 46.7 µM (inactive) | 60.1 µM (inactive) | 32 µM (inactive) | 59.3 µM (inactive) | 36.6 µM (inactive) | 15.7 µM (inactive) | 35.4 µM (inactive) | 35.3 µM (inactive) | 20.3 µM (inactive) | 32.7 µM (inactive) | 19.6 µM (inactive) | – | 38.9 µM (inactive) | 26.1 µM (inactive) | 34.5 µM (inactive) | –
6 | CCOC(=O)C1=NN(c2ccc(Cl)cc2)C2=CC(C)=NN(C)C(=S)N21 | > 10 µM (inactive) | > 100 µM (inactive) | > 100 µM (inactive) | > 100 µM (inactive) | 45.2 µM (inactive) | 29.9 µM (inactive) | > 100 µM (inactive) | > 100 µM (inactive) | 51.5 µM (inactive) | 20.7 µM (inactive) | 25.9 µM (inactive) | 22.6 µM (inactive) | > 100 µM (inactive) | 25.4 µM (inactive) | > 100 µM (inactive) | 19.9 µM (inactive) | > 100 µM (inactive) | 47.1 µM (inactive) | – | 59.7 µM (inactive)
7 | C=CCc1cccc2cc(C(=O)Nc3ccc(C)cc3)c(=N)oc12 | > 100 µM (inactive) | > 100 µM (inactive) | > 100 µM (inactive) | > 100 µM (inactive) | > 100 µM (inactive) | > 100 µM (inactive) | > 100 µM (inactive) | > 100 µM (inactive) | > 100 µM (inactive) | > 100 µM (inactive) | > 100 µM (inactive) | – | > 100 µM (inactive) | > 100 µM (inactive) | > 100 µM (inactive) | > 100 µM (inactive) | > 100 µM (inactive) | > 100 µM (inactive) | > 100 µM (inactive) | > 100 µM (inactive)
8 | O=C(O)c1ccc(C(=O)O)c2c(C(=O)O)ccc(C(=O)O)c12 | > 100 µM (inactive) | > 100 µM (inactive) | > 100 µM (inactive) | > 100 µM (inactive) | > 100 µM (inactive) | > 100 µM (inactive) | > 100 µM (inactive) | > 100 µM (inactive) | > 100 µM (inactive) | > 100 µM (inactive) | > 100 µM (inactive) | > 100 µM (inactive) | > 100 µM (inactive) | > 100 µM (inactive) | – | > 100 µM (inactive) | > 100 µM (inactive) | > 100 µM (inactive) | > 100 µM (inactive) | > 100 µM (inactive)
9 | c1ccc(OCc2nnc(CCCCCCCCc3nnc(COc4ccccc4)o3)o2)cc1 | > 100 µM (inactive) | – | > 100 µM (inactive) | > 100 µM (inactive) | 99.5 µM (inactive) | > 100 µM (inactive) | > 100 µM (inactive) | > 100 µM (inactive) | > 100 µM (inactive) | 50.6 µM (inactive) | 32.2 µM (inactive) | 32.2 µM (inactive) | > 100 µM (inactive) | 13.2 µM (inactive) | > 100 µM (inactive) | > 100 µM (inactive) | > 100 µM (inactive) | > 100 µM (inactive) | 97.3 µM (inactive) | > 100 µM (inactive)
10 | CSCC[C@H](NC(=O)C(CC(C)C)NC(=O)[C@H](Cc1c[nH]cn1)NC(=O)CNC(=O)[C@@H](NC(=O)[C@@H](C)NC(=O)[C@H](Cc1c[nH]c2ccccc12)NC(=O)[C@H](CCC(N)=O)NC(=O)[C@@H](N)CC(N)=O)C(C)(C)SC)C(N)=O (stereo not given in full) (H-NQW[dA][Pen](Me)GH[ξL]M-NH2) | > 100 µM (inactive) | – | > 100 µM (inactive) | > 100 µM (inactive) | > 100 µM (inactive) | > 100 µM (inactive) | > 100 µM (inactive) | > 100 µM (inactive) | > 100 µM (inactive) | > 100 µM (inactive) | > 100 µM (inactive) | > 100 µM (inactive) | > 100 µM (inactive) | > 100 µM (inactive) | > 100 µM (inactive) | > 100 µM (inactive) | > 100 µM (inactive) | > 100 µM (inactive) | > 100 µM (inactive) | –
11 | CN(C)CCNC(=O)c1cc(Cl)cc2cc3ccccc3nc12 | 0.757 µM (active) | 0.721 µM (active) | 0.455 µM (active) | 0.311 µM (active) | 1.22 µM (inactive) | 1.43 µM (inactive) | 1.01 µM (active) | 1.76 µM (inactive) | 0.731 µM (active) | – | 1.64 µM (inactive) | 1.62 µM (inactive) | 1.31 µM (inactive) | 1.06 µM (active) | 0.578 µM (active) | – | 0.433 µM (active) | 0.597 µM (active) | 1.62 µM (inactive) | –
12 | N=C(N)SCCC(=O)CCSC(=N)N | > 100 µM (inactive) | – | > 100 µM (inactive) | > 100 µM (inactive) | > 100 µM (inactive) | – | 99.5 µM (inactive) | > 100 µM (inactive) | > 100 µM (inactive) | > 100 µM (inactive) | > 100 µM (inactive) | – | > 100 µM (inactive) | > 100 µM (inactive) | > 100 µM (inactive) | – | > 100 µM (inactive) | > 100 µM (inactive) | – | > 100 µM (inactive)
13 | CC12CCC(=O)[C@@]1(C)CCCC2O (stereo not given in full) | > 100 µM (inactive) | > 100 µM (inactive) | > 100 µM (inactive) | > 100 µM (inactive) | > 100 µM (inactive) | > 100 µM (inactive) | > 100 µM (inactive) | > 100 µM (inactive) | > 100 µM (inactive) | > 100 µM (inactive) | > 100 µM (inactive) | > 100 µM (inactive) | > 100 µM (inactive) | – | > 100 µM (inactive) | > 100 µM (inactive) | > 100 µM (inactive) | > 100 µM (inactive) | > 100 µM (inactive) | > 100 µM (inactive)
14 | CC=C/C=C/[C@@H]1O[C@](O)([C@H](CC)C(=O)NC/C=C/C=C(\C)[C@@H](OC)[C@@H](C)[C@@H]2O[C@H](/C=C/C=C/C=C(\C)C(=O)c3c(O)cc[nH]c3=O)[C@H](O)[C@@H]2O)[C@H](O)[C@H](O)C1(C)C | > 100 µM (inactive) | 88.7 µM (inactive) | > 100 µM (inactive) | 92.7 µM (inactive) | > 100 µM (inactive) | > 100 µM (inactive) | > 100 µM (inactive) | > 100 µM (inactive) | – | > 100 µM (inactive) | > 100 µM (inactive) | > 100 µM (inactive) | – | – | 93.5 µM (inactive) | – | – | – | > 100 µM (inactive) | > 100 µM (inactive)
15 | O=C(O)C(O)Cc1ccccn1 (stereo not given) | > 100 µM (inactive) | > 100 µM (inactive) | > 100 µM (inactive) | > 100 µM (inactive) | > 100 µM (inactive) | > 100 µM (inactive) | > 100 µM (inactive) | > 100 µM (inactive) | – | > 100 µM (inactive) | > 100 µM (inactive) | – | > 100 µM (inactive) | > 100 µM (inactive) | > 100 µM (inactive) | > 100 µM (inactive) | > 100 µM (inactive) | > 100 µM (inactive) | > 100 µM (inactive) | > 100 µM (inactive)
